# Where two headings read alike, the source gives them in different places.
# Test system: ligand-binding domain of the human estrogen receptor (amino acids 282-595) fused to human Ha-Ras (L61) in cdc25-2 yeast cells
# Type: cell-based
# Settings: for growth of cdc25-2-yeast cells: Glu medium + E (10^−5M)
# From the text: Expression of a functional, membrane-associated Ras protein fused to a nuclear receptor and/or parts of one such can be detected by the fact that the yeast cells are able to grow irrespective of the presence of a functional GEF protein at said restrictive temperatures if a suitable ligand of the expressed nuclear receptor is present.
# The basic vector used is a vector with a marker gene (Ura) and a galactose-inducible promoter (GALI) for the fusion gene to be expressed. As shown diagrammatically in FIG. 2, the DNA sequence to be expressed encodes:
# 1. a myristylation signal,
# 3. the human Ha-Ras (L61) which is constitutively active and which lacks the so-called CAAX box, the farnesylation signal for membrane localization.
# Conventional yeast transformation and manipulation protocols (see, for example, Hill et al. (1991), NAR 19, 5791) were used. The cells were plated out either on a glucose minimal medium which contains the necessary amino acids and nucleotides (20 mg/l histidine, 100 mg/l leucine, 20 mg/l tryptophan, 20 mg/l uracil, 10 mg/l adenine sulfate), 2% glucose, 0.5% NH4SC4, 0.17% yeast extract and 4% agar, or on galactose medium (1.7 g/l yeast nitrogen without amino acids, 5 g/l ammonium sulfate, 30 g/l galactose (>99%) 20 g/l D-raffinose, 20 g/l glycerol (100%), 30 g/l Bacto Agar).
# Clones were plated out on YPD medium (1% yeast extract, 2% Bacto tryptone and 2% glucose) as control. YPD medium contains no galactose, so that there ought to be no expression of the fusion protein.
# Replica platings were carried out with velvet replica plater. After transformation with the nucleic acid vector described above, the cells were plated out on glucose plates and incubated at a non-restrictive temperature of 25° C. for three to four days.
substance,measurement,setting,value
estrogen,growth of cdc25-2-yeast cells,25° C. (non-restrictive),+
same,growth of cdc25-2-yeast cells,"37° C. (restrictive), 12 to 36 h, OD 600",−
same,cell reproduction of transformed clones,"YPD medium (no galactose, no expression of the fusion protein) with addition of estrogen, control",no cell reproduction

# Source: patent US7348151B1, “Method for the cellular high-throughput-detection of nuclear receptor ligand interactions” (priority 1998, dated 2008)
